{
  "source": "patent US4913906A",
  "about": "“Novel controlled release dosage form of valproic acid” (priority 1985, dated 1990)",
  "origin": "cited, not measured here",
  "key": {"[1]": {"conditions": "all currently used antiepileptics"}},
  "data": [
    {"compound": "CCCC(CCC)C(=O)O", "note": "[VPA, valproic acid]", "values": [
      {"measurement": "elimination half-life compared with other antiepileptics", "setting": "[1]", "result": "shortest elimination half-life of all currently used antiepileptics"}
    ]},
    {"compound": "CCCC(CCC)C(N)=O", "note": "[Valpromide, valpromide]", "values": [
      {"measurement": "fluctuations in the drug plasma level", "setting": "chronic valpromide treatment", "result": "fewer fluctuations in the drug plasma level"},
      {"measurement": "absorption rate", "setting": "compared with valproic acid", "result": "slower absorption rate than valproic acid"},
      {"measurement": "biotransformation to VPA", "setting": "in vivo", "result": "biotransform to VPA before reaching the systemic circulation"}
    ]}
  ]
}
